Measured values: patent publication US7083969B2, “Serratia marcescens strain” (Korea Research Institute of Bioscience and Biotechnology, priority 1997, dated 2006)

Assays:
T lymphocytes [1] = test: Graft versus host reaction in vivo (lymphatic node weight); parameters: species or system BDF1 mice; settings: 100 mg/kg peritoneally for five days; sixth day after transplantation
Excerpt: (§1) Germ-free test animals, mice BDF1 and B6C3F1, obtained from Genetic Resources Center, Korean Research Institute of Bioscience and Biotechnology in the Korean Institute of Science and Technology, were used for the assay of the immunosuppressive activity of prodigiosin. […] At such concentrations as show no cytotoxic effects, prodigiosin cannot suppress the immune response of B lymphocytes. […] This selective immunosuppression for T lymphocytes is not ascribed to the selective cytotoxicity for T lymphocytes. The same immunosuppression results as in the ex vivo experiments were obtained in in vivo experiments. When T lymphocyte activity was measured by use of a graft versus host reaction and a T cell-dependent antibody producing reaction, the prodigiosin suppressed the immune response, but exerted no toxicity on animals. Therefore, the immunosuppressive activity of the prodigiosin is thought to be attributed to the selective suppression for T lymphocyte activity.
(§2) A graft versus host reaction was utilized for the in vivo assay of prodigiosin's immunosuppression. The graft versus host reaction enables an assessment of the immune response of T lymphocytes. On the sixth day after transplantation of the T lymphocytes of BDF1 mice different in histocompatibility antigen, the lymphatic nodes were measured for weight, thereby assessing the immune response of T lymphocyte to the grafted heteroantigens. The prodigiosin was peritoneally injected at a dose of 30–100 mg per kg of body weight for five days while cyclophosphamide, as a positive control, was peritoneally injected at a dose of 100 mg/kg for five days. The body weights of the injected mice were measured to compare the toxicity of prodigiosin with that of cyclophosphamide. […] As for the body weight, it was not changed in the mice injected with prodigiosin at an effective concentration.

[2] = Body weight of injected mice in graft versus host experiment (toxicity); type: in vivo
Procedure: as §2

T lymphocytes [3] = test: T cell-dependent immune response in vivo (antibody producing cells after sheep red blood cell immunization); parameters: species or system mice; settings: 100 mg/kg; 4 days after immunization
Excerpt: as §1
(§3) A T cell-dependent immune response reaction was used to assess the influence of prodigiosin on T lymphocytes in vivo. Test animals were immunized with sheep red blood cells by peritoneal injection. 4 days after the immunization, the number of the antibody producing cells was counted. Prodigiosin was peritoneally injected everyday. Based on the number of the […] cells in the non-treated animals, the influence of prodigiosin on T lymphocytes in vivo was assessed as percentage. Also, the weight ratio of the spleen to the body was measured to assay the toxicity of prodigiosin to the animals. Cyclophosphamide was used as a positive control.

[4] = Weight ratio of the spleen to the body (toxicity); type: in vivo, mice
Procedure: as §3

CD8 T lymphocytes = settings: known; cited from earlier work
T lymphocytes [5] = settings: known; cited from earlier work

Compound | Wt. (mg) of Lymphatic node (T lymphocytes [1]) [mg] | Body weight ([2]; 100 mg/kg peritoneally for five days) [g] | body weight change ([2]; at an effective concentration) | Immune Response (%) (T lymphocytes [3]) | Wt. Ratio of spleen/body (%) ([4]; 100 mg/kg) | toxicity judged by weight ratio of the spleen to the body ([4]; at effective concentrations) | suppression of CD8 T lymphocytes (CD8 T lymphocytes) | proliferation of T lymphocytes (T lymphocytes [5])
O=P1(N(CCCl)CCCl)NCCCO1 (centres unmarked) [Cyclophosphamide, reference compound] | 0.06 | 18 | loss of body weight | 7 | 26 | very toxic |  | 
CCCCCCCCCCCc1ccc(/C=C2\N=C(c3ccc[nH]3)C=C2OC)[nH]1 [Prodigiosin 25-C, prodigiosin 25-C] |  |  |  |  |  |  | suppressed | suppress
